The source of these data is ChEMBL document CHEMBL5096196, “Utilizing structure based drug design and metabolic soft spot identification to optimize the in vitro potency and in vivo pharmacokinetic properties leading to the discovery of novel reversible Bruton's tyrosine kinase inhibitors” (Bioorg Med Chem, 2021).

Each structure is given as a SMILES string.

Data set [1] in a line: Apparent permeability of compound across Caco-2/TC-7 monolayers in human Caco-2 cells by LC/MSMS analysis. It is filed as ADME, cell-based. A general note: Passage across Caco-2 layers is used to estimate intestinal permeability.
Data set [2] can be described thus: in vitro. The following applies: human, liver microsomes. On the technique in general: Liver microsomes are a subcellular fraction often used to study metabolism.
A short description of data set [3]: in vitro. The following applies: rat, liver microsomes.
Data set [4] in a line: Metabolic stability in rat liver microsomes. Format: ADME, Microsome.
Data set [5] in a line: Metabolic stability in human liver microsomes. Format: ADME, Microsome.
Another data set can be described thus: physchem. Conditions: octanol/water.

The Papp is the rate of passage across a membrane or cell layer, normalised by area and donor concentration. Regarding `O=C1[C@H](Nc2cc(F)cc(Cl)c2)CCCN1[C@@H]1CCCN(c2ncnc3[nH]ccc23)C1`, in data set [1], the Papp was determined as 28 ×10⁻⁶ cm/s.
The term amount remaining denotes the share of the starting amount still present when the sample was taken. Low values mean more turnover, high ones less turnover. On to `O=C(O)/C=N/[C@@H]1CCCN(c2ncnc3[nH]ncc23)C1`, for which the share remaining at 0.5 h in “in vitro [2]” was 13%; in “in vitro [3]”, 85%.
In the case of `N[C@@H](C(=O)N[C@@H]1CCCN(c2ncnc3[nH]ncc23)C1)C1CC1`, the Stability is 7% in data set [4] and less than 5% in data set [5].
With `O=C(CO)N[C@@H]1CCCN(c2ncnc3[nH]ncc23)C1`, the fraction remaining at 0.5 h in the data set “in vitro [2]” was determined as 19%; in the data set “in vitro [3]”, 11%.
As for `O=C(N[C@@H]1CCCN(c2ncnc3[nH]ncc23)C1)[C@H](O)C1CC1`, the figures for the Stability in data set [4] and in data set [5] were 6% and less than 5%, respectively.
Take `O=C(N[C@@H]1CCCN(c2ncnc3[nH]ncc23)C1)C(O)Nc1cc(Cl)cc(Cl)c1` (some centres not stated): the results for the fraction remaining at 0.5 h in “in vitro [2]” and in “in vitro [3]” were 31% and less than 5%, respectively.
As usually defined, the logD is lipophilicity at a set pH, counting ionised and neutral species. Read a low logD as a more hydrophilic compound. On to `O=C1[C@H](Nc2cc(F)cc(Cl)c2)CCCN1[C@@H]1CCCN(c2ncnc3[nH]ncc23)C1`, for which the pH-dependent lipophilicity (logD) in “physchem” turned out to be 4.
